Test results: patent publication US20160303116A1, “TREATMENT OF MULTIPLE SCLEROSIS WITH A 1,2,4-TRIAZOLO [1,5A] PYRIDINE DERIVATIVE” (CEPHALON, INC., priority 2013, published 2016)

Legend:
[1] = tested on: MOG-induced EAE; assay: MOG-induced EAE mouse model of MS, clinical signs; type: in vivo, C57Bl/6 mice; conditions: for Percent Inhibition-1: inhibition according to incidence vs vehicle; for Onset (of disease): no EAE counted as 31 days; for Percent Inhibition-3: reduction of GMS vs vehicle; for Percent Inhibition-2: reduction of MMS vs vehicle; for Incidence: sick/total
[2] = tested on: MOG-induced EAE; assay: Histological scoring of spinal cords from MOG-induced EAE mice (inflammation, demyelination); type: in vivo, C57Bl/6 mice; conditions: 30 and 55 mg/kg twice a day and 110 mg/kg once a day; range over groups
Description: At the end of the observation period (day 30) the mice of the treatment groups were necropsied. The mice were deeply anesthetized with isoflourane and air and transcardially perfused, initially with a flushing solution (saline with heparin) until the perfusate was bloodless and then flushed with 4% buffered formalin. The vertebral columns (from the cervical region to the lumbar region) of each of the mice were dissected. The vertebral column was isolated by cutting away as much muscle as possible and sectioned distally at the last rib. The brain and the vertebral column were preserved in 4% buffered formalin.
Two transverse sections from each cervical and lumbar intumescence (cervico-thoracic and lumbo-sacral vertebral segments) were evaluated. […] Histological sections were scored blind. Inflammation was evaluated for both gray and white matter, demyelination was evaluated within white matter only, and axonal injury was evaluated within the white matter. […] The percentage axonal loss was determined by subtracting the number of points crossing axons subtracted by the total number of points of the stereological grid, divided by the total number of points of the stereological grid.
Two transverse sections from each cervical and lumbar intumescence (cervico-thoracic and lumbo-sacral vertebral segments) were evaluated. […]

[3] = tested on: SCH-induced EAE; assay: SCH-induced EAE mouse model (acute), clinical signs; type: in vivo, (Balb/c×SJL) F1 (CSFL) mice; conditions: for GMS reduction / MMS reduction: vs vehicle
[4] = tested on: PLP-induced EAE; assay: PLP-induced EAE mouse model (relapsing-remitting), clinical signs; type: in vivo, SJL/J mice; conditions: for Mortality: dead/total, to day 60; for Incidence: sick/total
[5] = tested on: PLP-induced EAE; assay: Ex vivo blinded pathology scoring in PLP-induced EAE; design: species or system SJL/J mice; conditions: 100 mg/kg dose; p<0.05; data not shown
Experimental: Two transverse sections from each cervical and lumbar intumescence (cervico-thoracic and lumbo-sacral vertebral segments) were evaluated. Histological evaluation was performed on 4 μm thick sections stained with hematoxylin-eosin (H&E), Luxol fast blue periodic acid-Schiff (LFB/PAS) and Bielschowsky silver impregnation to assess inflammation, demyelination and axonal pathology. Histological sections were scored blind. Inflammation was evaluated for both gray and white matter, demyelination was evaluated within white matter only, and axonal injury was evaluated within the white matter. Scores from both cervico-thoracic, and lumbosacral sections, respectively, were averaged to obtain the average inflammation score and demyelination scores. The most severe area of demyelination for each section was used to evaluate axonal pathology. […] The percentage axonal loss was determined by subtracting the number of points crossing axons subtracted by the total number of points of the stereological grid, divided by the total number of points of the stereological grid.

[6] = in vivo; design: species or system male beagle dogs; conditions: dog, po
[7] = design: species or system mice; conditions: mouse, in vivo
Experimental: PTX was injected intraperitoneally on the day of induction and 48 hours later at 100 ng/0.2 ml/mouse. […] All animals were monitored daily for clinical signs from the tenth day post-EAE induction until day 30. Scoring of EAE clinical signs was recorded on observations cards according to the grading system described herein.

[8] = molecular target: JAK2 (Homo sapiens, UniProt O60674); conditions: statement with reference to earlier filings; cited from earlier work
Chain of JAK2 (O60674 whole entry, species assumed): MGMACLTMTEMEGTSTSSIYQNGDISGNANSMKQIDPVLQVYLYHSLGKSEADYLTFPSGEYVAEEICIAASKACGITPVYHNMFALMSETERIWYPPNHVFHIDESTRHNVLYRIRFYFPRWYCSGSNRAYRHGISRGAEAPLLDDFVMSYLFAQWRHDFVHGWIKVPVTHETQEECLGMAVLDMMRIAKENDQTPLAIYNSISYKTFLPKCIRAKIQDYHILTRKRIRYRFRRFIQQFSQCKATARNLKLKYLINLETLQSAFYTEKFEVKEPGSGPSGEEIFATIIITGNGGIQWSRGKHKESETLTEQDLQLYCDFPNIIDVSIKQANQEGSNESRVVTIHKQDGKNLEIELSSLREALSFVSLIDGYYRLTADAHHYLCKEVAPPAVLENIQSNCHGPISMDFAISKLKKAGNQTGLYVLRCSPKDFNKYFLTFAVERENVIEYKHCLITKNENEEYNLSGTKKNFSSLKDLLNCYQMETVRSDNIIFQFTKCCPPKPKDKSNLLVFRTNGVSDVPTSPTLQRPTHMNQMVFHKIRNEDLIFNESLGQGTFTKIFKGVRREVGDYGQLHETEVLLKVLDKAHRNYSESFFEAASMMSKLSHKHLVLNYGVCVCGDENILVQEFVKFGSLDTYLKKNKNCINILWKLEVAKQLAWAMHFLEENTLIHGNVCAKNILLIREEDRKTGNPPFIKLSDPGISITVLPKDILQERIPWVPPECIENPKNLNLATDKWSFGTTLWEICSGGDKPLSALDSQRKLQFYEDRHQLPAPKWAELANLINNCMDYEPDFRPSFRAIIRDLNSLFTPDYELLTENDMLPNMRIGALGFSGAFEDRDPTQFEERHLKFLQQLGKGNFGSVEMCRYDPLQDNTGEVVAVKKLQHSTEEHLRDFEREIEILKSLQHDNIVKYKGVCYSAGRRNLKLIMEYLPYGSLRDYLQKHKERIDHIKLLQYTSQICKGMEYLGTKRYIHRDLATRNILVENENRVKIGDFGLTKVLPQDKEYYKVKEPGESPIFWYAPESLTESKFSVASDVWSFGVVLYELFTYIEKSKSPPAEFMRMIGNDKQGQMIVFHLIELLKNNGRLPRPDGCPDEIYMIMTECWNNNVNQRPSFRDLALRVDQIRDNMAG

[9] = 110 mg/kg orally once a day, vs vehicle
[10] = 110 mg/kg orally twice a day (so in the source)

## CN1CCN(c2cccc(Nc3nc4c(-c5ccc(S(C)(=O)=O)cc5)cccn4n3)c2)CC1 [Compound A, [8-(4-methanesulfonyl-phenyl)-[1,2,4]triazolo[1,5-a]pyridin-2-yl]-[3-(4-methyl-piperazin-1-yl)-phenyl]-amine]
[1]; 30 mg/kg orally twice a day
  Duration (of disease): 3.7 ± 6.1 days
  GMS (group mean score): 0.2±0.4
  MMS (mean maximal score): 0.7±1.0
  Percent Inhibition-1: 53.3%
  Onset (of disease): 23.7 ± 8.2 days
  Percent Inhibition-3: 90.5%
  Percent Inhibition-2: 79.4%
[1]; 30 mg/kg orally twice a day, dead/total, to day 30
  Mortality: 0/15
[1]; 30 mg/kg orally twice a day, to day 30
  Incidence: 7/15
[1]; 30 mg/kg orally twice daily
  reduction in clinical scores compared to vehicle (FIG. 1): 90.5%
[1]; 55 mg/kg orally twice a day
  Duration (of disease): 0.2 ± 0.8 days
  GMS (group mean score): 0.01±0.04
  MMS (mean maximal score): 0.1±0.3
  Percent Inhibition-1: 93.3%
  Onset (of disease): 30.5 ± 2.1 days
  Percent Inhibition-3: 99.5%
  Percent Inhibition-2: 97.1%
[1]; 55 mg/kg orally twice a day, dead/total, to day 30
  Mortality: 0/15
[1]; 55 mg/kg orally twice a day, to day 30
  Incidence: 1/15
[1]; 55 mg/kg orally twice daily
  reduction in clinical scores compared to vehicle (FIG. 1): 99.5%
[1]; [9]
  GMS reduction: 98.5%
  MMS reduction: 97.1%
[1]; 110 mg/kg orally once daily
  reduction in clinical score over that of vehicle (FIG. 1): 98.5%
[1]; [10]
  Duration (of disease): 0.5 ± 2.1 days
  GMS (group mean score): 0.03 ± 0.1
  MMS (mean maximal score): 0.1 ± 0.3
  Percent Inhibition-1: 93.3%
  Onset (of disease): 30.5 ± 2.1 days
  Percent Inhibition-3: 98.5%
  Percent Inhibition-2: 97.1%
[1]; 110 mg/kg orally twice a day (so in the source), dead/total, to day 30
  Mortality: 0/15
[1]; 110 mg/kg orally twice a day (so in the source), to day 30
  Incidence: 1/15
[1]; any of the MOG-induced EAE treatment groups
  Mortality: not observed
[1]; once daily dosing at 10 mg/kg, 30 mg/kg and 60 mg/kg (data not shown)
  impact on clinical score over vehicle: no significant impact over vehicle
[2]
  reduction of demyelination over vehicle (LFB/PAS): 17.3%-23.9%
  reduction of spinal inflammation over vehicle (H&E): 41.6%-57.5%
[3]; 30 mg/kg orally twice a day
  Clinical score reduction compared to vehicle (FIG. 3): 37.3%
  Duration (of disease): 8.2 ± 3.3 days
  Onset (of disease): 16.2 ± 2.0 days
  GMS reduction: 37.3%
  MMS reduction: 17.5%
[3]; 60 mg/kg orally twice a day
  Clinical score reduction compared to vehicle (FIG. 3): 58.3%
  Duration (of disease): 8.4 ± 4.2 days
  Onset (of disease): 16.4 ± 3.0 days
  GMS reduction: 58.3%
  MMS reduction: 30%
[3]; range over groups treated with Compound A, vehicle 40%
  Mortality: 20-80%
[4]; 30 mg/kg orally twice a day
  GMS (1st and 2nd relapse): 1.3 ± 0.9
  Mortality: 0/15
  Incidence: 15/15
[4]; 30 mg/kg twice daily
  reduction in overall mean clinical scores compared to vehicle (FIG. 4): 25.9%
[4]; 60 mg/kg once daily (data not shown)
  reduction in clinical score over that of vehicle: 20.1%
[4]; 60 mg/kg orally once a day
  GMS (1st and 2nd relapse): 1.4 ± 0.8
  Mortality: 0/15
  Incidence: 15/15
[4]; 60 mg/kg orally twice a day
  GMS (1st and 2nd relapse): 0.8 ± 0.4
  Mortality: 0/15
  Incidence: 15/15
[4]; 60 mg/kg twice daily
  reduction in overall mean clinical scores compared to vehicle (FIG. 4): 49.9%
[4]; 100 mg/kg once daily (data not shown)
  reduction in clinical score over that of vehicle: 54.9%
[4]; 100 mg/kg orally once a day
  GMS (1st and 2nd relapse): 0.9 ± 0.5
  Mortality: 0/15
  Incidence: 15/15
[4]; 100 mg/kg orally twice a day
  GMS (1st and 2nd relapse): 0.3 ± 0.3
  Mortality: 0/15
  Incidence: 10/15
[4]; 100 mg/kg twice a day
  activity in the first relapse: 97.6%
  activity in the second relapse: 85.9%
[4]; 100 mg/kg twice daily
  reduction in overall mean clinical scores compared to vehicle (FIG. 4): 86.1%
[5]
  reduction of inflammation (H&E staining): significance in the reduction of inflammation
[6]; 30 mg/kg
  dose relation of Cmax and AUC: linear, dose-related increases
[6]; male, beagle, 100 mg/kg
  Cmax: 1760 ng/mL
[7]
  exposures associated with efficacy: 2000 to 4000 ng/mL
[8]
  inhibition of JAK2: potent
